Experimental data reported in patent publication US4198421A, “Antiinflammatory 2-substituted-dibenzo[2,3:6,7]oxepino[4,5-d]imidazoles” (E. I. Du Pont de Nemours and Company, priority 1978, dated 1980).
Read-outs that look alike come from different tables or passages of the source.

System: adjuvant-induced arthritis
Assay: Established Adjuvant-Induced Arthritis in Rats (A.A.)
Format: in vivo, Charles River Lewis male rats
Details: Rattus norvegicus, 168 h, read-out: A. A. ED50%
[1] = ED50% decrease from control paw volume (uninjected, left hind paw), established adjuvant-induced arthritis, oral gavage daily, 7 days, read by visual fit

Row | Compound | ED50 [1] [mg/kg] | ED50 (po) [mg/kg]
1 | O=S(=O)(c1nc2c([nH]1)-c1ccc(F)cc1Oc1ccccc1-2)C(F)(F)C(F)F [Example 2, 10-Fluoro-2-[(1,1,2,2-tetrafluoroethyl)sulfonyl]-1H-dibenzo[2,3:6,7]oxepino[4,5-d]imidazole] | 4.5 | 
2 | COc1ccc2c(c1)c(CC(=O)O)c(C)n2C(=O)c1ccc(Cl)cc1 [Indomethacin, indomethacin] |  | 0.3
3 | Fc1ccc2c(c1)Oc1ccccc1-c1nc(SC(F)(F)C(F)F)[nH]c1-2 [1 (k), 10-Fluoro-2-[(1,1,2,2-tetrafluoroethyl)thio]-1H-dibenzo[2,3:6,7]oxepino[4,5-d]imidazole] | < 27 | 
4 | CC(C)Cc1ccc(C(C)C(=O)O)cc1 (centres unmarked) [Ibuprofen, ibuprofen] | 100 | 
5 | CCCCC1C(=O)N(c2ccccc2)N(c2ccccc2)C1=O [Phenylbutazone, phenylbutazone] | 10 | 
